Assays:
morningglory [1] = experiment: Test A postemergence; assay type: in vivo, Ipomoea spp.; conditions: 0 to 100 scale where 0 is no effect and 100 is complete control
Method in brief: (§1)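 Scoring: eye-based comparison with untreated controls, 0 for no effect through 100 for complete control, at about day 10. Treatments: directed soil spray preemergence; foliar spray postemergence on 2–10 cm plants at the one- to two-leaf stage. Medium: loam soil with sand.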

morningglory [2] = experiment: Test A preemergence; assay type: in vivo, Ipomoea spp.
Method in brief: as §1

barnyardgrass [3] = experiment: Test C postemergence; assay type: in vivo, Echinochloa crus-galli
Method in brief: (§2)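 Seeds are planted in blended loam soil and sand and treated preemergence, while seedlings in a peat moss/vermiculite medium receive postemergence sprays at 2 to 18 cm height. All plants stay in the greenhouse for 13 to 15 days before visual comparison with controls on a 0–100 scale.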

kochia = experiment: Test C postemergence; assay type: in vivo, Kochia scoparia
Method in brief: as §2

wheat = experiment: Test A postemergence; assay type: in vivo, Triticum aestivum; conditions: 0 to 100 scale where 0 is no effect and 100 is complete control
Method in brief: as §1

morningglory [4] = experiment: Test C postemergence; assay type: in vivo, Ipomoea coccinea
Method in brief: as §2

pigweed [5] = experiment: Test A preemergence; assay type: in vivo, Amaranthus retroflexus
Method in brief: as §1

pigweed [6] = experiment: Test C postemergence; assay type: in vivo, Amaranthus retroflexus
Method in brief: as §2

Heteranthera limosa = experiment: Test B flooded paddy test; assay type: in vivo; conditions: Flood, 250 g ai/ha; 0 to 100 scale where 0 is no effect and 100 is complete control
Method in brief: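 Seedlings are raised to two leaves, flooded to a depth of 3 cm and dosed by adding the compound to the floodwater. Water level is kept constant, and plants are scored visually versus controls 13–15 days later (0 = no effect, 100 = complete control).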

wild oat = experiment: Test C postemergence; assay type: in vivo, Avena fatua
Method in brief: as §2

ragweed = experiment: Test C postemergence; assay type: in vivo, Ambrosia elatior
Method in brief: as §2

velvetleaf [7] = experiment: Test C postemergence; assay type: in vivo, Abutilon theophrasti
Method in brief: as §2

blackgrass = experiment: Test C postemergence; assay type: in vivo, Alopecurus myosuroides
Method in brief: as §2

barnyardgrass [8] = experiment: Test A preemergence; assay type: in vivo, Echinochloa crus-galli
Method in brief: as §1

velvetleaf [9] = experiment: Test A preemergence; assay type: in vivo, Abutilon theophrasti
Method in brief: as §1

[10] = 500 g ai/ha, 0 to 100 scale where 0 is no effect and 100 is complete control
[11] = 16 g ai/ha, postemergence, 0 is no effect, 100 is complete control
[12] = 31 g ai/ha, postemergence, visual rating, scale 0 to 100 (0 no effect, 100 complete control), 13 to 15 days
[13] = 125 g ai/ha, postemergence, visual rating, scale 0 to 100 (0 no effect, 100 complete control)
[14] = Postemergence, 62 g ai/ha, scale 0 to 100 (0 no effect, 100 complete control), 13 to 15 days

## FC(F)c1cnn(-c2c(Br)cccc2Oc2ncc(Cl)cn2)c1 [Compound 232]
Morningglory [1]; 125 g ai/ha
  Morningglory plant response rating: 80
Morningglory [1]; 500 g ai/ha
  Plant response rating, Morningglory: 90
Morningglory [2]; 125 g ai/ha
  Morningglory plant response rating (0 to 100 scale): 20
Morningglory [2]; [10]
  Morningglory plant response rating: 90
Barnyardgrass [3]; [11]
  Plant response rating (0 to 100), Barnyardgrass: 10
Barnyardgrass [3]; [12]
  Barnyardgrass plant response rating: 5
Barnyardgrass [3]; [13]
  Plant response rating, Barnyardgrass: 20
Barnyardgrass [3]; Postemergence, 62 g ai/ha, scale 0 to 100 (0 no effect, 100 complete control)
  Plant response rating, Barnyardgrass: 10
kochia; [11]
  Plant response rating (0 to 100), Kochia: 85
kochia; [12]
  Kochia plant response rating: 85
kochia; [13]
  Plant response rating, Kochia: 98
kochia; [14]
  Plant response rating, Kochia: 90
wheat; 125 g ai/ha
  Wheat plant response rating: 20
wheat; 500 g ai/ha
  Plant response rating, Wheat: 50
Morningglory [4]; [11]
  Plant response rating (0 to 100), Morningglory: 70
Morningglory [4]; [12]
  Morningglory plant response rating: 80
Morningglory [4]; [13]
  Plant response rating, Morningglory: 85
Morningglory [4]; [14]
  Plant response rating, Morningglory: 55
Pigweed [5]; 125 g ai/ha
  Pigweed plant response rating (0 to 100 scale): 100
Pigweed [5]; [10]
  Pigweed plant response rating: 100
Pigweed [6]; [11]
  Plant response rating (0 to 100), Pigweed: 60
Pigweed [6]; [12]
  Pigweed plant response rating: 70
Pigweed [6]; [13]
  Plant response rating, Pigweed: 85
Pigweed [6]; [14]
  Plant response rating, Pigweed: 60
Heteranthera limosa
  Plant response rating, Ducksalad: 95
Wild oat; [11]
  Plant response rating (0 to 100), Oat, Wild: 0
Wild oat; [12]
  Oat, Wild plant response rating: 0
Wild oat; [13]
  Plant response rating, Oat, Wild: 20
Wild oat; [14]
  Plant response rating, Oat, Wild: 5
ragweed; [11]
  Plant response rating (0 to 100), Ragweed: 25
ragweed; [12]
  Ragweed plant response rating: 35
ragweed; [13]
  Plant response rating, Ragweed: 60
ragweed; [14]
  Plant response rating, Ragweed: 50
Velvetleaf [7]; [11]
  Plant response rating (0 to 100), Velvetleaf: 35
Velvetleaf [7]; [12]
  Velvetleaf plant response rating: 60
Velvetleaf [7]; [13]
  Plant response rating, Velvetleaf: 65
Velvetleaf [7]; [14]
  Plant response rating, Velvetleaf: 30
blackgrass; [11]
  Plant response rating (0 to 100), Blackgrass: 10
blackgrass; [12]
  Blackgrass plant response rating: 0
blackgrass; [13]
  Plant response rating, Blackgrass: 25
blackgrass; [14]
  Plant response rating, Blackgrass: 5
Barnyardgrass [8]; 125 g ai/ha
  Barnyardgrass plant response rating (0 to 100 scale, 0 is no effect, 100 is complete control): 60
Barnyardgrass [8]; [10]
  Barnyardgrass plant response rating: 100
Velvetleaf [9]; 125 g ai/ha
  Velvetleaf plant response rating (0 to 100 scale): 20
Velvetleaf [9]; [10]
  Velvetleaf plant response rating: 100

Reference: patent US9695155B2, “Herbicidal substituted pyrimidinyloxy benzene compounds” (E. I. DU PONT DE NEMOURS AND COMPANY, priority 2013, dated 2017)
